Reference: patent US20240091200A1 (Lilac Therapeutics, Inc., priority 2019, published 2024)
“And” between values parts separate entries of the source, which are not always exact repeats. Equal entries are not always repeated. Where two headings read alike, the source gives them in different places.

How the values were obtained:
[1] = Plasma pharmacokinetics after an oral dose of Example 2 in SD rats; type: in vivo, Sprague Dawley rats; conditions: for bioavailability: oral
Description: An oral dose of Example 2 was formulated in a sterile solution of 50% water, 37.5% PEG 300, and 12.5% DMSO at 1.0 mg/mL. The dosing group consisted of three fasted male Sprague Dawley rats. At dosing, the animals weighed between 0.26 and 0.27 kg. For the oral dosing group, the formulated dose was administered via oral gavage at 5.0 mL/kg for a dose of 5.0 mg/kg. Non-compartmental pharmacokinetic analysis was performed on the plasma concentration-time data.

[2] = Plasma pharmacokinetics of Example 68 after IV infusion or PO dose in SD rats; type: in vivo
[3] = Example 68 in plasma, PO dose of Example 2 5 mg/kg, individual rats
[4] = male, Sprague Dawley, rat, plasma, po, 5 mg/kg, Example 68 in plasma, PO dose of Example 2 5 mg/kg, individual rats
[5] = male, Sprague Dawley, rat, plasma, po, 5 mg/kg, Example 68 in plasma, PO dose of Example 2 5 mg/kg, mean n=3
[6] = 30-minute IV infusion 1 mg/kg, individual rats
[7] = 30-minute IV infusion 1 mg/kg, mean n=3
[8] = PO dose 5 mg/kg, individual rats
[9] = SD, rat, plasma, po, 5 mg/kg, PO dose 5 mg/kg, mean n=3
[10] = Sprague-Dawley (SD), rat, plasma, iv, 1 mg/kg, 30-minute IV infusion 1 mg/kg, individual rats
[11] = Sprague-Dawley (SD), rat, plasma, iv, 1 mg/kg, 30-minute IV infusion 1 mg/kg, mean n=3

## NC(=O)c1ccc(-c2ccc(-c3nn[nH]c3C(=O)O)cc2)cc1 [Example 68, 4-(4carbamoyl-[1,1biphenyl]-4-yl)-1H-1,2,3-triazole-5-carboxylic acid]
[1]; Example 68 after PO Example 2 5 mg/kg, based on IV exposure of Example 68 at 1.0 mg/kg, individual rats
  F (bioavailability): 20.2% and 17.4%
[1]; [3]
  AUC0-24 h: 3.36 µM·h and 2.93 µM·h
  AUCinf: 3.45 µM·h and 2.98 µM·h
  Cmax: 2.22 µM and 2.45 µM
  Tmax: 15 min
[1]; Example 68 in plasma, PO dose of Example 2 5 mg/kg, mean n=3
  AUCinf: 3.25 µM·h
[1]; male, Sprague Dawley, rat, plasma, 5 mg/kg, Example 68 after PO Example 2 5 mg/kg, based on IV exposure of Example 68 at 1.0 mg/kg, individual rats, read-out: F (bioavailability)
  bioavailability: 19.4%
[1]; male, Sprague Dawley, rat, plasma, 5 mg/kg, Example 68 after PO Example 2 5 mg/kg, based on IV exposure of Example 68 at 1.0 mg/kg, mean n=3, read-out: F (bioavailability)
  bioavailability: 19 ± 1.4%
[1]; [4]
  AUC(0-inf): 3.32 µM·h
  Cmax: 2.12 µM
[1]; male, Sprague Dawley, rat, plasma, po, 5 mg/kg, Example 68 in plasma, PO dose of Example 2 5 mg/kg, individual rats, read-out: AUC0-24 h
  AUC(0-t): 3.15 µM·h
[1]; male, Sprague Dawley, rat, plasma, po, 5 mg/kg, Example 68 in plasma, PO dose of Example 2 5 mg/kg, individual rats, read-out: Tmax
  Tmax: 30 min
[1]; [5]
  AUC(0-inf): 3.25 ± 0.242 µM·h
  Cmax: 2.27 ± 0.171 µM
[1]; male, Sprague Dawley, rat, plasma, po, 5 mg/kg, Example 68 in plasma, PO dose of Example 2 5 mg/kg, mean n=3, read-out: AUC0-24 h
  AUC(0-t): 3.14 µM·h
[1]; male, Sprague Dawley, rat, plasma, po, 5 mg/kg, Example 68 in plasma, PO dose of Example 2 5 mg/kg, mean n=3, read-out: Tmax
  Tmax: 25.2 min
[2]; [6]
  AUCinf: 3.11 µM·h and 3.46 µM·h
  AUClast: 3.09 µM·h and 3.45 µM·h
  CL (apparent systemic clearance): 1.04 L/h/kg and 0.93 L/h/kg
  Cmax: 5.1 µM and 5.35 µM
  MRT (mean residence time): 29.4 min and 26.4 min
  Vss (volume of distribution): 0.51 L/kg
  t1/2 (terminal): 64.8 min and 57.6 min
[2]; [7]
  CL (apparent systemic clearance): 0.95 L/h/kg
  t1/2 (terminal): 61.2 min
[2]; [8]
  AUCinf: 0.383 µM·h and 0.479 µM·h
  AUClast: 0.334 µM·h and 0.396 µM·h
  Cmax: 0.0904 µM and 0.065 µM and 0.182 µM
  F (oral bioavailability): 1.9%
  Tmax: 0.25 hr (2×) and 2.00 hr
[2]; SD, rat, plasma, po, 5 mg/kg, PO dose 5 mg/kg, individual rats
  AUC(0-inf): 0.485 µM·h
[2]; [9]
  AUC(0-inf): 0.449 µM·h
  Cmax: 0.113 µM
[2]; [10]
  AUC(0-inf): 3.69 µM·h
  AUC(0-t): 3.68 µM·h
  Cmax: 4.94 µM
[2]; Sprague-Dawley (SD), rat, plasma, iv, 1 mg/kg, 30-minute IV infusion 1 mg/kg, individual rats, read-out: CL (apparent systemic clearance) (converted)
  clearance: 0.87 L/h/kg
[2]; Sprague-Dawley (SD), rat, plasma, iv, 1 mg/kg, 30-minute IV infusion 1 mg/kg, individual rats, read-out: MRT (mean residence time)
  MRT: 28.2 min
[2]; Sprague-Dawley (SD), rat, plasma, iv, 1 mg/kg, 30-minute IV infusion 1 mg/kg, individual rats, read-out: Vss (volume of distribution)
  Vd: 0.41 L/kg
[2]; Sprague-Dawley (SD), rat, plasma, iv, 1 mg/kg, 30-minute IV infusion 1 mg/kg, individual rats, read-out: t1/2 (terminal) (converted)
  half-life: 60.6 min
[2]; [11]
  AUC(0-inf): 3.42 µM·h
  AUC(0-t): 3.4 µM·h
  Cmax: 5.13 µM
[2]; Sprague-Dawley (SD), rat, plasma, iv, 1 mg/kg, 30-minute IV infusion 1 mg/kg, mean n=3, read-out: CL (apparent systemic clearance) (converted)
  clearance: 0.95 L/h/kg
[2]; Sprague-Dawley (SD), rat, plasma, iv, 1 mg/kg, 30-minute IV infusion 1 mg/kg, mean n=3, read-out: MRT (mean residence time)
  MRT: 28.2 ± 1.2 min
[2]; Sprague-Dawley (SD), rat, plasma, iv, 1 mg/kg, 30-minute IV infusion 1 mg/kg, mean n=3, read-out: Vss (volume of distribution)
  Vd: 0.44 ± 0.06 L/kg
[2]; Sprague-Dawley (SD), rat, plasma, iv, 1 mg/kg, 30-minute IV infusion 1 mg/kg, mean n=3, read-out: t1/2 (terminal) (converted)
  half-life: 61.2 ± 3.6 min
[2]; Sprague-Dawley (SD), rat, plasma, po, 5 mg/kg, PO dose 5 mg/kg, individual rats
  AUC(0-t): 0.429 µM·h
[2]; Sprague-Dawley (SD), rat, plasma, po, 5 mg/kg, PO dose 5 mg/kg, individual rats, read-out: F (oral bioavailability)
  bioavailability: 2.5%
[2]; Sprague-Dawley (SD), rat, plasma, po, 5 mg/kg, PO dose 5 mg/kg, mean n=3
  AUC(0-t): 0.386 µM·h
[2]; Sprague-Dawley (SD), rat, plasma, po, 5 mg/kg, PO dose 5 mg/kg, mean n=3, read-out: F (oral bioavailability)
  bioavailability: 2.3%
[2]; Sprague-Dawley (SD), rat, plasma, po, 5 mg/kg, PO dose 5 mg/kg, mean n=3, read-out: Tmax
  Tmax: 49.8 min
